Broadly, the IC50 is the concentration that inhibits the measured activity by half.

One data set concerns rabbit. Kind of data set: Safety profile, acute toxicity in rabbit. The class given is in vivo.
In data set [1] the target is T1, calcium/calmodulin (Ca/CAM)-independent cGMP PDE (Oryctolagus cuniculus, UniProt G1SX67).
T1 construct: The PDE enzymes are isolated from rabbit platelets and rat kidney; from tissue; host or cells: rabbit platelets
Put plainly: In vitro inhibition of Ca/CAM-independent cGMP PDE. Format: biochemical, rabbit. The conditions noted are these: Ca/CAM-independent cGMP PDE from rabbit platelets, in vitro. How it is done: (§1) Phosphodiesterase activity
(§2) Compound affinities for cGMP and cAMP PDEs are assessed by determination of their IC50 values (the concentration of inhibitor required for 50% inhibition of enzyme activity). The PDE enzymes are isolated from rabbit platelets and rat kidney, essentially by the method of W. J. Thompson et al. (Biochem., 1971, 10, 311). The calcium/calmodulin (Ca/CAM)-independentcGMP PDE and the cGMP-inhibited cAMP PDE enzymes are obtained from rabbit platelets whilst, of the four major PDE enzymes of the rat kidney, the Ca/CAM-dependent cGMP PDE (fraction I) is isolated. Assays are performed using a modification of the "batch" method of W. J. Thompson and M. M. Appleman (Biochem., 1979, 18, 5228).

The subject of data set [2] is calcium/calmodulin (Ca/CAM)-independent cGMP PDE. Put plainly: In vitro inhibition of Ca/CAM-independent cGMP PDE. The class given is biochemical, rabbit. The conditions noted are these: between Ca/CAM-independent cGMP PDE and cGMP-inhibited cAMP PDE (IC50 cAMP / IC50 cGMP). How it is done: as §1, §2
The next data set addresses T2, cGMP-inhibited cAMP PDE (Oryctolagus cuniculus, UniProt G1ST54).
T2 construct: The PDE enzymes are isolated from rabbit platelets and rat kidney; from tissue; host or cells: rabbit platelets
T2 sequence (G1ST54 1-1128): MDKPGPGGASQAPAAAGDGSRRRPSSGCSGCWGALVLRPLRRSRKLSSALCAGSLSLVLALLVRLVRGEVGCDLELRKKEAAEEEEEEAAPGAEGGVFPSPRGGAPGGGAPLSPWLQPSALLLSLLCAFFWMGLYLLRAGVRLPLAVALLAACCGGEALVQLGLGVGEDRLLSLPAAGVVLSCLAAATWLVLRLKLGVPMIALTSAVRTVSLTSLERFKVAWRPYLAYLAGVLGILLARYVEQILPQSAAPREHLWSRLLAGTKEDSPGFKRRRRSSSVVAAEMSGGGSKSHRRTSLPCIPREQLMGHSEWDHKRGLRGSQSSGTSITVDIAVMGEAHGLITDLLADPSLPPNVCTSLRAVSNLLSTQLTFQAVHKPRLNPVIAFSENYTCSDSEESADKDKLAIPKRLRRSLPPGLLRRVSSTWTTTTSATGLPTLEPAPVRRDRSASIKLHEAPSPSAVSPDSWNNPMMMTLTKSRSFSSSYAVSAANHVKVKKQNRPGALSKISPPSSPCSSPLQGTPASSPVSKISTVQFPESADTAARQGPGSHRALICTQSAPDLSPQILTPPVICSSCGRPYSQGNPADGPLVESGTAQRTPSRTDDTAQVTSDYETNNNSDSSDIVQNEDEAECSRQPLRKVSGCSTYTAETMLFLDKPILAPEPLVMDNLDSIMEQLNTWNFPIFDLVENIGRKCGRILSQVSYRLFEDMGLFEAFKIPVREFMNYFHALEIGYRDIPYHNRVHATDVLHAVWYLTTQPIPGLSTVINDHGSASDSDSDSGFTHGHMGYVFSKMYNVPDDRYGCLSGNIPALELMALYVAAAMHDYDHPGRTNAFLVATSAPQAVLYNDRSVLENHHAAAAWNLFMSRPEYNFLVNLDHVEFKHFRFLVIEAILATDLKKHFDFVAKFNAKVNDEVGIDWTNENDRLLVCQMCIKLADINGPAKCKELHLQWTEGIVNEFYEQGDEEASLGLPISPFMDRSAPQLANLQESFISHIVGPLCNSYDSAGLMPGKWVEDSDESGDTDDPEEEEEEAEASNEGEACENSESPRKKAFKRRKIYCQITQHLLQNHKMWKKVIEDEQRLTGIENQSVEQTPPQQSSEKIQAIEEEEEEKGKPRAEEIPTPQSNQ
Put plainly: In vitro inhibition of cGMP-inhibited cAMP PDE. The class given is biochemical. The conditions noted are these: cGMP-inhibited cAMP PDE from rabbit platelets. The procedure: as §1, §2

On to `CCOc1ccc(S(=O)(=O)N2CCN(CCO)CC2)cc1-c1nc2cccc(C)c2c(=O)[nH]1` [Example 4, 2-{2-Ethoxy-5-[4-(2-hydroxyethyl)-1-piperazinylsulphonyl]phenyl}-5-methylquinazolin-4(3H)-one], for which the “signs of adverse acute toxicity” value with rabbit (doses of up to 10 mg/kg i.d.) is “no signs of adverse acute toxicity being observed”.
As to `CCOc1ccc(S(=O)(=O)N2CCN(CCO)CC2)cc1-c1nc2c(C)cccc2c(=O)[nH]1` [Example 5, 2-{2-Ethoxy-5-[4-(2-hydroxyethyl)-1-piperazinylsulphonyl]phenyl}-8-methylquinazolin-4(3H)-one], the IC50 was 37 nM in data set [1] and greater than 100000 nM on cGMP-inhibited cAMP PDE. The “SELECTIVITY RATIO” value in data set [2] is > 2,702. Moreover, in the data set with rabbit (doses of up to 10 mg/kg i.d.), the “signs of adverse acute toxicity” value is given as “no signs of adverse acute toxicity being observed”.
For the molecule `CCCOc1ccc(S(=O)(=O)N2CCN(CCO)CC2)cc1-c1nc2c(C)cccc2c(=O)[nH]1` [Example 6], the IC50 in data set [1] is 6.5 nM; against cGMP-inhibited cAMP PDE it was greater than 100000 nM. Further, the “SELECTIVITY RATIO” value in data set [2] is given as > 15,384.
Take `CCCOc1ccc(C=CC(=O)N2CCN(C)CC2)cc1-c1nc2c(C)cccc2c(=O)[nH]1` [Example 9]: the IC50 was 37 nM in data set [1] and greater than 100000 nM at cGMP-inhibited cAMP PDE. Moreover, the “SELECTIVITY RATIO” value in data set [2] was > 2,702. The “signs of adverse acute toxicity” value in the data set on rabbit (doses of up to 1 mg/kg i.d.) is reported as “no signs of adverse acute toxicity being observed”.
With `CCCOc1ccc(C=CC(=O)OC(C)(C)C)cc1-c1nc2c(C)cccc2c(=O)[nH]1` [Example 10, t-Butyl 3-(8-methylquinazolin-4(3H)-on-2-yl)-4-n-propoxycinnamate], the results for the IC50 (in data set [1]; on cGMP-inhibited cAMP PDE) were 54 nM and greater than 100000 nM, respectively. Also, in data set [2], the “SELECTIVITY RATIO” value is > 1,851.
For the molecule `CCOc1ccc(C(O)CN2CCOCC2)cc1-c1nc2c(C)cccc2c(=O)[nH]1` (centres unmarked) [Example 17, 2-[2-Ethoxy-5-(1-hydroxy-2-morpholinoethyl)phenyl]-8-methylquinazolin-4(3H)-one], the IC50 in data set [1] was 53 nM; against cGMP-inhibited cAMP PDE, greater than 100000 nM. The “SELECTIVITY RATIO” value in data set [2] was > 1,886.
The matching figures for `CCOc1ccc(S(=O)(=O)N2CCN(CCO)CC2)cc1-c1nc2c(C(N)=O)cccc2c(=O)[nH]1` [Example 19, 8-Carbamoy-2-{2-ethoxy-5-[4-(2-hydroxyethyl)-1-piperazinylsulphonyl]phenyl}quinazolin-4(3H)-one]: 34 nM, 67000 nM and 1,970.
The matching figures for `CCCOc1ccccc1-c1nc2c(C(=O)NCC)cccc2c(=O)[nH]1` [Example 21, 8-Ethylcarbamoyl-2-(2-n-propoxyphenyl)quinazolin-4(3H)-one]: 14 nM, greater than 100000 nM and > 7,142.
With `CCCOc1ccc(C(C)=O)cc1-c1nc2c(C)cccc2c(=O)[nH]1` [Example 22, 2-(5-Acetyl-2-n-propoxyphenyl)-8-methylquinazolin-4(3H)-one], the IC50 in data set [1] is 49 nM; against cGMP-inhibited cAMP PDE it was greater than 100000 nM.

(Values after patent US5482941A, “Quinazolinone antianginal agents” (Pfizer Inc., priority 1991, dated 1996).)
